According to patent US8993595B2, “Macrocyclic serine protease inhibitors” (priority 2009, dated 2015):

Legend:
HCV NS3-NS4A protease = target: T1, HCV NS3-NS4A protease (Hepatitis C virus genotype 1a, UniProt P27958); assay: HCV Protease Assay (SensoLyte 620 HCV Protease Assay kit); type: biochemical; conditions: 1.2 nM HCV NS3-NS4A protease, 60 min, room temperature
T1 construct: HCV NS3-NS4A protease, which was obtained according to Taremi et al; made in house
Procedure: Measurement of the inhibitory effect of compounds on HCV protease activity was performed with the SensoLyte™ 620 HCV Protease Assay kit from AnaSpec, Inc. (San Jose, Calif.) under conditions described by the supplier using 1.2 nM HCV NS3-NS4A protease, which was obtained according to Taremi et al. (Protein Science, 1998, 7, 2143-2149). The compounds were tested at a variety of concentrations in assay buffer containing a final DMSO concentration of 5%. Reactions were allowed to proceed for 60 min at room temperature and fluorescence measurements were recorded with a Tecan Infinity Spectrofluorimeter. The IC50 values were determined from the percent inhibition versus concentration data using a sigmoidal non-linear regression analysis based on four parameters with Tecan Magellan software.

[1] = test system: JFH-1 (genotype 2a) virus in HPC cells; assay: HCV in vitro infection core ELISA assay; type: cell-based
Procedure: HPC cells were infected with JFH-1 (genotype 2a) and treated with the compound for 4 days (virus inoculum was removed after 16 hrs). Remaining virus was measured by an anti-HCV core ELISA. Compound cytotoxicity was also measured in parallel using a colorimetric proliferation assay as described in Example 5.
The HCV in vitro infection core ELISA assay measures the ability of a test compound to inhibit replication of an infectious HCV (strain JFH-1; genotype 2a) in cell culture. […] We have developed this model for determining the efficacy of antiviral compounds against an infectious virus in vitro using HCV producing cells (HPC), a proprietary Huh-7-derived cell sublineage capable of propagating the JFH-1 HCV virus. The readout of the assay is quantification of HCV core protein by ELISA 5 days post infection with JFH-1 virus and treatment with a test compound. […]
OPD solution was prepared using 1 OPD tablet+12 mL citrate/phosphate buffer (16 mM citric acid, 27 mM Na2HPO4) plus 5 μL 30% H2O2 per plate. […] The reaction was stopped with 100 μL/well of 2N H2SO4, and absorbance measured at A490 nm in a Victor^3 V 1420 multilabel counter (Perkin Elmer). The EC50 values for each compound were calculated from dose response curves from the resulting best-fit equations determined by Microsoft Excel and XLfit 4.1 software. […]

[2] = Cytotoxicity in parallel, colorimetric proliferation assay, 1a replicon cells; type: cell-based; conditions: human, replicon cells (genotype 1a)
[3] = test system: genotype 1b replicon cells; assay: Selection of drug-resistant genotype 1b replicon cell lines; type: cell-based, HCV; conditions: all eight selected genotype 1b cell lines
Procedure: Replicon cells (genotype 1a or 1b) were treated with various concentrations of compound 52 in the presence of G418. Treatment-emergent genotypic changes were identified by population sequencing of NS3 (both protease and helicase regions). The activity of compound 52 and other compounds was evaluated by NS5A western blot after selection or luciferase assay during and after selection.
Eight drug-resistance replicon cell lines were created by long-term culture of genotype 1b replicon cells with 10 or 25 nM of compound 52. NS3 (AAs 1-631) was sequenced at each passage.

[4] = test system: human peripheral blood lymphocytes; type: cell-based; conditions: up to 84 μg/mL, with and without S9
Procedure: (§1) The potential for compound 52 to induce mutations in a bacterial system (S. typhimurium and E. coli—at concentrations up to 5,000 μg/plate), to induce chromosomal aberrations in cultures of human peripheral blood lymphocytes (at concentrations up to 84 μg/mL), and to induce clastogenic and/or aneugenic activity in CD-1 mice (at oral doses up to 2,000 mg/kg) was evaluated. The two in vitro studies were performed with and without the addition of a mammalian metabolic activation system (rat liver S9 subcellular fraction).

CD-1 mice = type: in vivo; conditions: oral doses up to 2,000 mg/kg
Procedure: as §1

[5] = human, in vivo
clinical = conditions: human, in vivo; for Cmax / Tmax: 400 mg per day; for half-life: T1/2, 400 mg per day

T1 sequence (P27958 1027-1208): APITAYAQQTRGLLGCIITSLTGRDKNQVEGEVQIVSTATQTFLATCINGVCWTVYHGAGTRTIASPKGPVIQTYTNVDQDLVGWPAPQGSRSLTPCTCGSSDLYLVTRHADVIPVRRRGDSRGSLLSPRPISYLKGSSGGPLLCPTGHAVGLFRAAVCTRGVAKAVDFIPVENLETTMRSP

COc1ccc2c(O[C@H]3CCN4C(=O)N(C)CCCC/C=C\[C@@H]5C[C@@]5(C(=O)NS(=O)(=O)C5(C)CC5)NC(=O)[C@@H]4C3)cc(-c3nc(C(F)(F)F)cs3)nc2c1C [Compound 52, 1-methyl-cyclopropanesulfonic acid{(Z)-(1S,4R,6S,18S)-18-[7-methoxy-8-methyl-2-(4-trifluoromethyl-thiazol-2-yl)-quinolin-4-yloxy]-13-methyl-2,14-dioxo-3,13,15-triaza-tricyclo[13.4.0.0*4,6*]nonadec-7-ene-4-carbonyl}amide]
IC50 (HCV NS3-NS4A protease): < 1000 nM
Selectivity Index ([1]; 2a virus): 2,568
EC50 ([1]; Hepatitis C virus, 96 h, 2a virus (JFH-1), HPC cells, 4 days, anti-HCV core ELISA): 4.4 ± 0.6 nM
CC50 at 5 days [2]: > 77000 nM
fold-change values (resistance) [3]: no less than 250
genotoxicity, human lymphocyte chromosomal aberration test [4]: no genotoxicity
genotoxicity, mouse micronucleus test (CD-1 mice): no genotoxicity
C24 hr [5]: 8 ± 5 ng/mL
Cmax (clinical; PK Day 1): 1150 ± 381 ng/mL
Cmax (clinical; PK Day 3): 1370 ± 345 ng/mL
half-life (clinical; PK Day 1): 12 ± 2 h
half-life (clinical; PK Day 3): 31 ± 8 h
Tmax (clinical; PK Day 1): 3 h
Tmax (clinical; PK Day 3): 3.5 h
